Active and inactive are the calls of the source. No cut-off for these calls is given here.
How the values were obtained:
[1] = target: 11-beta-hydroxysteroid dehydrogenase 1 (Homo sapiens, UniProt P28845, C272S); experiment: Inhibition of N-terminal MKHQHQHQHQHQHQQPL-tagged 11beta-HSD1 C272S mutant (unknown origin) expressed in Escherichia coli BL21 (DE3) using cortisol as substrate measured for 1 hr in presence of NADPH by fluorescence assay
3T3-L1 [2] = experiment: Cell cycle arrest in mouse 3T3L1 preadipocytes up to 1 mM measured after 24 hrs under non-differentiating medium by propidium iodide staining-based flow cytometry; type: ADME; conditions: 3t3-l1, 24 h
3T3-L1 [3] = experiment: Cell cycle arrest in mouse 3T3L1 cells up to 1 mM measured after 24 hrs under induction medium containing dehydrocorticosterone/cortisone by propidium iodide staining-based flow cytometry; type: ADME; conditions: 3t3-l1, 24 h
3T3-L1 [4] = experiment: Inhibition of cell differentiation in mouse 3T3L1 cells assessed as reduction in pre-adipocyte differentiation into matured adipocytes at 50 uM incubated for 48 hrs under induction medium containing dehydrocorticosterone/cortisone followed by shifting to differentiation medium and measured after 7 days by Oil red O staining-based microscopic analysis; type: functional
3T3-L1 [5] = experiment: Anti-adipogenic activity in mouse 3T3L1 preadipocytes assessed as decrease in lipid accumulation at 50 uM incubated for 48 hrs under induction medium containing dehydrocorticosterone/cortisone followed by shifting to differentiation medium and measured after 7 days by Oil red O staining-based microscopic analysis; type: functional, cell-based
3T3-L1 [6] = experiment: Anti-adipogenic activity in mouse 3T3L1 preadipocytes assessed as decrease in lipid accumulation at 10 uM incubated for 48 hrs under induction medium containing dehydrocorticosterone/cortisone followed by shifting to differentiation medium and measured after 7 days by Oil red O staining-based microscopic analysis; type: functional, cell-based
3T3-L1 [7] = experiment: Anti-adipogenic activity in mouse 3T3L1 preadipocytes assessed as restoration of cell morphology at 50 uM incubated for 48 hrs under induction medium containing dehydrocorticosterone/cortisone followed by shifting to differentiation medium and measured after 7 days by mitotracker red/lipidtox green staining-based confocal microscopic analysis; type: functional
3T3-L1 [8] = experiment: Anti-adipogenic activity in mouse 3T3L1 preadipocytes assessed as decrease in lipid accumulation at 50 uM measured after 3 days under induction medium containing dehydrocorticosterone/cortisone by Oil red O staining-based microscopic analysis; type: functional, cell-based
Homo sapiens = experiment: Anti-adipogenic activity in human subcutaneous preadipocytes assessed as decrease in lipid accumulation at 50 uM incubated for 48 hrs under induction medium containing hydrocortisone hemi-succinate prior to compound washout followed by shifting to differentiation medium containing compound supplemented with fresh medium every 48 to 72 hrs for 9 to 14 days by oil red O staining-based microscopic analysis; type: functional, cell-based
3T3-L1 [9] = experiment: Anti-adipogenic activity in mouse 3T3L1 preadipocytes assessed as reduction in C/EBPdelta mRNA expression at 50 to 100 uM measured daily for 2 days under induction media containing dehydrocorticosterone/cortisone by SYBR green dye-based qRT-PCR analysis; type: functional, cell-based
3T3-L1 [10] = experiment: Anti-adipogenic activity in mouse 3T3L1 preadipocytes assessed as reduction in S6K1 mRNA expression at 50 to 100 uM measured daily for 2 days under induction media containing dehydrocorticosterone/cortisone by SYBR green dye-based qRT-PCR analysis; type: functional, cell-based
3T3-L1 [11] = experiment: Anti-adipogenic activity in differentiated mouse 3T3L1 cells assessed as reduction in 11beta-HSD1 mRNA expression at 50 to 100 uM measured after 2 to 7 days by SYBR green dye-based qRT-PCR analysis; type: functional, cell-based
3T3-L1 [12] = experiment: Anti-adipogenic activity in differentiated mouse 3T3L1 cells assessed as reduction in Glut4 mRNA expression at 50 to 100 uM measured after 2 to 7 days by SYBR green dye-based qRT-PCR analysis; type: functional, cell-based
3T3-L1 [13] = experiment: Anti-adipogenic activity in differentiated mouse 3T3L1 cells assessed as reduction in FASN mRNA expression at 50 to 100 uM measured after 2 to 7 days by SYBR green dye-based qRT-PCR analysis relative to control; type: functional
3T3-L1 [14] = experiment: Anti-adipogenic activity in differentiated mouse 3T3L1 cells assessed as reduction in 11beta-HSD1 expression at 50 uM measured on day 3 by Western blot analysis; type: functional, cell-based
3T3-L1 [15] = experiment: Anti-adipogenic activity in differentiated mouse 3T3L1 cells assessed as reduction in PPARgamma expression at 50 uM measured on day 7 by Western blot analysis; type: functional, cell-based
3T3-L1 [16] = experiment: Anti-adipogenic activity in differentiated mouse 3T3L1 cells assessed as reduction in PGC1alpha expression at 50 uM measured on day 7 by Western blot analysis; type: functional, cell-based
3T3-L1 [17] = experiment: Effect on total GR expression in differentiated mouse 3T3L1 cells at 50 uM measured on day 3 and 7 by Western blot analysis; type: ADME, cell-based; conditions: 3t3-l1, 50 µM
3T3-L1 [18] = experiment: Anti-adipogenic activity in differentiated mouse 3T3L1 cells assessed as reduction in mitochondrial mass at 50 uM measured on day 7 by mitotracker deep red/hoechst 33342 staining-based confocal imaging analysis; type: functional, cell-based
Fibroblast [19] = experiment: Effect on nascent protein synthesis in mouse fibroblasts assessed as reduction in O-Propargyl-puromycin incorporation at 50 uM measured after 2 hrs by fluorescent azide/pico green dye-based confocal microscopic analysis; type: ADME, cell-based
Fibroblast [20] = experiment: Effect on nascent protein synthesis in mouse fibroblasts assessed as reduction in O-Propargyl-puromycin incorporation at 50 uM by fluorescent azide/pico green dye-based confocal microscopic analysis; type: ADME, cell-based
[21] = target: T1, Peroxisome proliferator-activated receptor gamma (Homo sapiens) (UniProt P37231); experiment: Antagonist activity at human PPARgamma expressed in 293H cells assessed as reduction in rosiglitazone-induced transcriptional response at 0.002 to 4 uM preincubated for 30 mins followed by rosiglitazone addition and measured after 16 hrs by reporter gene-based FRET assay; type: cell-based
T1 sequence (whole entry): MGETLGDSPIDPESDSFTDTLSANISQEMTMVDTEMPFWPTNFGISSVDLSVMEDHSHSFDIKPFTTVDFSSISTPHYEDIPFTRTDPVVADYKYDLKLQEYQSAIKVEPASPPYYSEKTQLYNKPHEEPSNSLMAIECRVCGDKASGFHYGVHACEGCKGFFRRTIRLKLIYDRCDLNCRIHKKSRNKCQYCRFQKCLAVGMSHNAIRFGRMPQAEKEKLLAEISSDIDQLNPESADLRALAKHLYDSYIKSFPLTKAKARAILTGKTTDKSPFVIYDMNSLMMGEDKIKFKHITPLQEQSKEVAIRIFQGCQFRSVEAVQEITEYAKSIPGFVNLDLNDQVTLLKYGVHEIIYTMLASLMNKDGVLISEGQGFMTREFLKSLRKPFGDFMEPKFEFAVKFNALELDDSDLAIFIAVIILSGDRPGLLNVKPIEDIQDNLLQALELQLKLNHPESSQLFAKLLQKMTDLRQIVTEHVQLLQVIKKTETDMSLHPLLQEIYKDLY

[22] = Half life in human plasma; type: ADME, cell-free
[23] = Stability in mouse plasma; type: ADME, cell-free
[24] = Half life in simulated gastric fluid; type: ADME
[25] = Volume of distribution at steady state in C57BL6 mouse at 5 to 30 mg/kg, iv by LC-MS analysis; type: ADME, organism-based; conditions: in vivo
[26] = target: 11-beta-hydroxysteroid dehydrogenase 1 (Homo sapiens, UniProt P28845); experiment: Inhibition of 11beta-HSD1 in human microsomes using [3H] cortisone as substrate by scintillation proximity assay
Sequence of 11-beta-hydroxysteroid dehydrogenase 1 (Homo sapiens, UniProt P28845) (P28845 whole entry): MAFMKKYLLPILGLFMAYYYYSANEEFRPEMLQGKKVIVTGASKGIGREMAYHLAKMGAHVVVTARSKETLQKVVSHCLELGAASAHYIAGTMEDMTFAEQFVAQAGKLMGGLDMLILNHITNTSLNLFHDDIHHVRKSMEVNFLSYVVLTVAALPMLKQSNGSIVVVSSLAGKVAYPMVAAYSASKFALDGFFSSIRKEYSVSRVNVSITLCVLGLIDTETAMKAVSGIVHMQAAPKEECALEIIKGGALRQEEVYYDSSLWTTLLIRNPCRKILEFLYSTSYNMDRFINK

Sequence of 11-beta-hydroxysteroid dehydrogenase 1 (Homo sapiens, UniProt P28845, C272S) (P28845 whole entry C272S): as the sequence (P28845 whole entry) above, with C272S counted along it

Question: For CC1=CC[C@@]2(C[C@@H]1O)[C@@H](C(=O)O)CC[C@H]2C(C)C, which IC50 [1] is on record?
Answer: 4.1 µM

Question: What about the Activity (3T3-L1 [2]) of the same molecule?
Answer: Non-Toxic

Question: And the Activity (3T3-L1 [3])?
Answer: Non-Toxic

Question: What about the inhibition (3T3-L1 [4]) of the same molecule?
Answer: Active

Question: What about the Activity (3T3-L1 [5]) of the same molecule?
Answer: Active

Question: What about the Activity (3T3-L1 [6]) of the same molecule?
Answer: Active

Question: And the Activity (3T3-L1 [7])?
Answer: Active

Question: And the Activity (3T3-L1 [8])?
Answer: inactive

Question: And the Activity (Homo sapiens)?
Answer: Active

Question: What about the Activity (3T3-L1 [9]) of the same molecule?
Answer: Active

Question: What about the Activity (3T3-L1 [10]) of the same molecule?
Answer: Active

Question: And the Activity (3T3-L1 [11])?
Answer: Active

Question: What about the Activity (3T3-L1 [12]) of the same molecule?
Answer: Active

Question: And the “fold change (FC)” value (3T3-L1 [13])?
Answer: <10

Question: What about the Activity (3T3-L1 [14]) of the same molecule?
Answer: inactive

Question: What about the Activity (3T3-L1 [15]) of the same molecule?
Answer: Active

Question: And the Activity (3T3-L1 [16])?
Answer: Active

Question: What about the Activity (3T3-L1 [17]) of the same molecule?
Answer: Non-Toxic

Question: What about the Activity (3T3-L1 [18]) of the same molecule?
Answer: Active

Question: What about the Activity (Fibroblast [19]) of the same molecule?
Answer: Non-Toxic

Question: And the Activity (Fibroblast [20])?
Answer: Non-Toxic

Question: What about the Activity [21] of the same molecule?
Answer: inactive

Question: And the half-life [22]?
Answer: > 48 h

Question: What about the Stability [23] of the same molecule?
Answer: Unstable

Question: And the half-life [24]?
Answer: < 2 h

Question: And the Vdss [25]?
Answer: 0.247 L/kg

Question: And the IC50 [26]?
Answer: 0.013 µM

— ChEMBL document CHEMBL4311946, “Mechanistic Insight on the Mode of Action of Colletoic Acid” (J Med Chem, 2019)
